Test results published in the supplement of paper PMC10307832.

Columns and labels:
Test in all cases: relative viability (nuclei count vs DMSO), 5 days (fraction); higher = more cells survive
[1] = compound: C/C(=N\NC(=S)N1CCC1)/C2=CC=CC=N2 + Cc1nc(Nc2ncc(C(=O)Nc3c(C)cccc3Cl)s2)cc(N2CCN(CCO)CC2)n1 [Dasatinib] (partner 0.075 µM)
Summary of the method: (§1)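 Lung cancer cell lines were seeded in 1536-well plates and dosed by pin tool the next day, with either a single drug or a fixed anchor-drug dose combined with five library-drug doses (not always all listed) spaced in √10 steps. Five days later, one step fixed the cells and stained their nuclei (final 0.05% Triton X-100, 1% formaldehyde, 1 ug/ml Hoechst), and nuclei were counted on 4× images. Relative viability is the nuclei count in treated wells divided by the count in vehicle wells, and each value is the median of duplicate plates.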

[2] = compound: C/C(=N\NC(=S)N1CCC1)/C2=CC=CC=N2 + Nc1nc2[nH]cc(CCc3ccc(C(=O)N[C@@H](CCC(=O)O)C(=O)O)cc3)c2c(=O)[nH]1 [Pemetrexed] (partner 0.2 µM)
Summary of the method: as §1

[3] = compound: C/C(=N\NC(=S)N1CCC1)/C2=CC=CC=N2 + CC(=O)c1c(C)c2cnc(Nc3ccc(N4CCNCC4)cn3)nc2n(C2CCCC2)c1=O [Palbociclib] (partner 0.5 µM)
Summary of the method: as §1

[4] = compound: C/C(=N\NC(=S)N1CCC1)/C2=CC=CC=N2 + O=C(CCCCCCC(=O)Nc1ccccc1)NO [Vorinostat] (partner 1 µM)
Summary of the method: as §1

Cell Line | relative viability ([1]; first compound 0.05 µM) | relative viability ([1]; first compound 0.1581 µM) | relative viability ([1]; first compound 0.5 µM) | relative viability ([1]; first compound 1.581 µM) | relative viability ([1]; first compound 5 µM) | relative viability ([2]; first compound 0.05 µM) | relative viability ([2]; first compound 0.1581 µM) | relative viability ([2]; first compound 0.5 µM) | relative viability ([2]; first compound 1.581 µM) | relative viability ([2]; first compound 5 µM) | relative viability ([3]; first compound 0.05 µM) | relative viability ([3]; first compound 0.1581 µM) | relative viability ([3]; first compound 0.5 µM) | relative viability ([3]; first compound 1.581 µM) | relative viability ([3]; first compound 5 µM) | relative viability ([4]; first compound 0.05 µM) | relative viability ([4]; first compound 0.1581 µM) | relative viability ([4]; first compound 0.5 µM) | relative viability ([4]; first compound 1.581 µM) | relative viability ([4]; first compound 5 µM)
PC-14 | 0.0371 | 0.0372 | 0.0336 | 0.023 | 0.0224 | 0.0492 | 0.0611 | 0.0691 | 0.0506 | 0.0521 | 0.0312 | 0.0553 | 0.052 | 0.0451 | 0.0402 | 0.0311 | 0.0568 | 0.041 | 0.041 | 0.0331
RERF-LC-KJ | 0.258 | 0.25 | 0.266 | 0.219 | 0.245 | 0.211 | 0.231 | 0.235 | 0.191 | 0.222 | 0.211 | 0.19 | 0.194 | 0.198 | 0.212 | 0.214 | 0.207 | 0.19 | 0.21 | 0.208
SK-LU-1 | 0.123 | 0.139 | 0.145 | 0.0978 | 0.114 | 0.293 | 0.28 | 0.282 | 0.187 | 0.246 | 0.233 | 0.233 | 0.246 | 0.196 | 0.233 | 0.21 | 0.244 | 0.242 | 0.219 | 0.272
SK-MES-1 | 0.145 | 0.155 | 0.133 | 0.107 | 0.126 | 0.248 | 0.258 | 0.23 | 0.177 | 0.207 | 0.221 | 0.2 | 0.2 | 0.174 | 0.177 | 0.198 | 0.208 | 0.182 | 0.177 | 0.183
SW 900 | 0.129 | 0.134 | 0.112 | 0.0964 | 0.248 | 0.127 | 0.081 | 0.0901 | 0.122 | 0.196 | 0.171 | 0.136 | 0.134 | 0.175 | 0.197 | 0.145 | 0.149 | 0.0776 | 0.125 | 0.183
SW 1573 | 0.0654 | 0.0445 | 0.0863 | 0.0351 | 0.0432 | 0.0863 | 0.149 | 0.169 | 0.0609 | 0.0817 | 0.0872 | 0.139 | 0.131 | 0.0878 | 0.0783 | 0.0949 | 0.115 | 0.145 | 0.0758 | 0.0799
UMC-11 | 0.231 | 0.186 | 0.153 | 0.138 | 0.146 | 0.221 | 0.169 | 0.159 | 0.141 | 0.138 | 0.155 | 0.139 | 0.238 | 0.213 | 0.169 | 0.168 | 0.14 | 0.146 | 0.134 | 0.139
